In PubChem BioAssay (NCI):
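In this assay, cells in 96-well plates receive the compound at five concentrations for 48 hours. Endpoints are linearly interpolated between the surrounding concentrations. GI50 marks 50% less growth. At the TGI there is no net growth.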

Legend:
Test in all cases: NCI-60 cell line screen, 48 h
786-0 renal = tested on: 786-0 renal
A498 renal = tested on: A498 renal
A549 NSCLC = tested on: A549 NSCLC
ACHN renal = tested on: ACHN renal
BT-549 breast = tested on: BT-549 breast
CAKI-1 renal = tested on: CAKI-1 renal
CCRF-CEM leukemia = tested on: CCRF-CEM leukemia
COLO 205 colon = tested on: COLO 205 colon
DU-145 prostate = tested on: DU-145 prostate
HCC-2998 colon = tested on: HCC-2998 colon
HCT-116 colon = tested on: HCT-116 colon
HCT-15 colon = tested on: HCT-15 colon
HL-60(TB) leukemia = tested on: HL-60(TB) leukemia
HOP-62 NSCLC = tested on: HOP-62 NSCLC
HOP-92 NSCLC = tested on: HOP-92 NSCLC
HS 578T breast = tested on: HS 578T breast
HT29 colon = tested on: HT29 colon
IGROV1 ovarian = tested on: IGROV1 ovarian
K-562 leukemia = tested on: K-562 leukemia
KM12 colon = tested on: KM12 colon
LOX IMVI melanoma = tested on: LOX IMVI melanoma
M14 melanoma = tested on: M14 melanoma
MALME-3M melanoma = tested on: MALME-3M melanoma
MCF7 breast = tested on: MCF7 breast
MDA-MB-231 breast = tested on: MDA-MB-231 breast
MDA-MB-435 = tested on: MDA-MB-435
MOLT-4 leukemia = tested on: MOLT-4 leukemia
NCI-H226 lung = tested on: NCI-H226 lung
NCI-H23 lung = tested on: NCI-H23 lung
NCI-H460 lung = tested on: NCI-H460 lung
NCI-H522 lung = tested on: NCI-H522 lung
NCI/ADR-RES ovarian = tested on: NCI/ADR-RES ovarian
OVCAR-3 ovarian = tested on: OVCAR-3 ovarian
OVCAR-4 ovarian = tested on: OVCAR-4 ovarian
OVCAR-5 ovarian = tested on: OVCAR-5 ovarian
OVCAR-8 ovarian = tested on: OVCAR-8 ovarian
PC-3 prostate = tested on: PC-3 prostate
RPMI-8226 leukemia = tested on: RPMI-8226 leukemia
RXF 393 renal = tested on: RXF 393 renal
SF-268 CNS = tested on: SF-268 CNS
SF-295 CNS = tested on: SF-295 CNS
SF-539 CNS = tested on: SF-539 CNS
SK-MEL-2 melanoma = tested on: SK-MEL-2 melanoma
SK-MEL-28 melanoma = tested on: SK-MEL-28 melanoma
SK-MEL-5 melanoma = tested on: SK-MEL-5 melanoma
SK-OV-3 ovarian = tested on: SK-OV-3 ovarian
SN12C renal = tested on: SN12C renal
SNB-19 CNS = tested on: SNB-19 CNS
SNB-75 CNS = tested on: SNB-75 CNS
SR leukemia = tested on: SR leukemia
SW-620 colon = tested on: SW-620 colon
T-47D breast = tested on: T-47D breast
TK-10 renal = tested on: TK-10 renal
U251 CNS = tested on: U251 CNS
UACC-257 melanoma = tested on: UACC-257 melanoma
UACC-62 melanoma = tested on: UACC-62 melanoma
UO-31 renal = tested on: UO-31 renal

## Cc1cccc2c(Nc3ccc(NS(C)(=O)=O)cc3)c3ccc([N+](=O)[O-])cc3nc12
786-0 renal
  GI50: 738 nM
  TGI: 4450 nM
A498 renal
  GI50: 703 nM
  TGI: 3810 nM
A549 NSCLC
  GI50: 128 nM
  TGI: 3240 nM
ACHN renal
  GI50: 661 nM
  TGI: 4130 nM
BT-549 breast
  GI50: 1750 nM
  TGI: 7470 nM
CAKI-1 renal
  GI50: 2430 nM
  TGI: 24000 nM
CCRF-CEM leukemia
  GI50: 326 nM
  TGI: 4520 nM
COLO 205 colon
  GI50: 1030 nM
  TGI: 3790 nM
DU-145 prostate
  GI50: 253 nM
  TGI: 4400 nM
HCC-2998 colon
  GI50: 1490 nM
  TGI: 3110 nM
HCT-116 colon
  GI50: 927 nM
  TGI: 5240 nM
HCT-15 colon
  GI50: 1190 nM
  TGI: 3540 nM
HL-60(TB) leukemia
  GI50: 2070 nM
  TGI: 7090 nM
HOP-62 NSCLC
  GI50: 373 nM
  TGI: 4870 nM
HOP-92 NSCLC
  GI50: 345 nM
  TGI: 2470 nM
HS 578T breast
  GI50: 1230 nM
  TGI: 5420 nM
HT29 colon
  GI50: 1590 nM
  TGI: 3470 nM
IGROV1 ovarian
  GI50: 954 nM
  TGI: 3650 nM
K-562 leukemia
  GI50: 2040 nM
  TGI: 14000 nM
KM12 colon
  GI50: 694 nM
  TGI: 2970 nM
LOX IMVI melanoma
  GI50: 409 nM
  TGI: 2130 nM
M14 melanoma
  GI50: 808 nM
  TGI: 3400 nM
MALME-3M melanoma
  GI50: 1210 nM
  TGI: 3430 nM
MCF7 breast
  GI50: 38.2 nM
  TGI: 3580 nM
MDA-MB-231 breast
  GI50: 2050 nM
  TGI: 5420 nM
MDA-MB-435
  GI50: 1850 nM
  TGI: 7270 nM
MOLT-4 leukemia
  GI50: 300 nM
  TGI: 6090 nM
NCI-H226 lung
  GI50: 755 nM
  TGI: 4080 nM
NCI-H23 lung
  GI50: 1250 nM
  TGI: 4310 nM
NCI-H460 lung
  GI50: 23.4 nM
  TGI: 1760 nM
NCI-H522 lung
  GI50: 1110 nM
  TGI: 2520 nM
NCI/ADR-RES ovarian
  GI50: 8300 nM
  TGI: 47100 nM
OVCAR-3 ovarian
  GI50: 1450 nM
  TGI: 4910 nM
OVCAR-4 ovarian
  GI50: 1900 nM
  TGI: 6380 nM
OVCAR-5 ovarian
  GI50: 3950 nM
  TGI: 21100 nM
OVCAR-8 ovarian
  GI50: 1300 nM
  TGI: 6420 nM
PC-3 prostate
  GI50: 1490 nM
  TGI: 7020 nM
RPMI-8226 leukemia
  GI50: 1090 nM
  TGI: 7560 nM
RXF 393 renal
  GI50: 1380 nM
  TGI: 3100 nM
SF-268 CNS
  GI50: 355 nM
  TGI: 4380 nM
SF-295 CNS
  GI50: 290 nM
  TGI: 7210 nM
SF-539 CNS
  GI50: 1070 nM
  TGI: 11400 nM
SK-MEL-2 melanoma
  GI50: 2550 nM
  TGI: 5490 nM
SK-MEL-28 melanoma
  GI50: 1510 nM
  TGI: 4380 nM
SK-MEL-5 melanoma
  GI50: 487 nM
  TGI: 1990 nM
SK-OV-3 ovarian
  GI50: 2400 nM
  TGI: 17100 nM
SN12C renal
  GI50: 486 nM
  TGI: 7580 nM
SNB-19 CNS
  GI50: 456 nM
  TGI: 14700 nM
SNB-75 CNS
  GI50: 1120 nM
  TGI: 5930 nM
SR leukemia
  GI50: 59.8 nM
  TGI: 2690 nM
SW-620 colon
  GI50: 870 nM
  TGI: 3230 nM
T-47D breast
  GI50: 147 nM
  TGI: 9320 nM
TK-10 renal
  GI50: 3160 nM
  TGI: 17500 nM
U251 CNS
  GI50: 419 nM
  TGI: 6360 nM
UACC-257 melanoma
  GI50: 1530 nM
  TGI: 4600 nM
UACC-62 melanoma
  GI50: 773 nM
  TGI: 3010 nM
UO-31 renal
  GI50: 1770 nM
  TGI: 13000 nM
